According to patent US8673289B2, “Attenuated uracil auxotroph of an apicomplexan and use thereof” (priority 2007, dated 2014):
Where a chain is given by its changes, count along the chain named. Names and notes keep the numbering of the source. Read-outs that look alike come from different tables or passages of the source.

B1: E. c. G359F: E. coli CPS with ammonia tunnel wall mutation G359F (protein, UniProt P0A6F1 1-382; P00968 2-1073, looked up, variant G359F)
Carbamoyl phosphate synthase … 1: MIKSALLVLEDGTQFHGRAIGATGSAVGEVVFNTSMTGYQEILTDPSYSRQIVTLTYPHIGNVGTNDADEESSQVHAQGLVIRDLPLIASNFRNTEDLSSYLKRHNIVAIADIDTRKLTRLLREKGAQNGCIIAGDNPDAALALEKARAFPGLNGMDLAKEVTTAEAYSWTQGSWTLTGGLPEAKKEDELPFHVVAYDFGAKRNILRMLVDRGCRLTIVPAQTSAEDVLKMNPDGIFLSNGPGDPAPCDYAITAIQKFLETDIPVFGICLGHQLLALASGAKTVKMKFGHHGGNHPVKDVEKNVVMITAQNHGFAVDEATLPANLRVTHKSLFDGTLQGIHRTDKPAFSFQGHPEASPFPHDAAPLFDHFIELIEQYRKTAK
Carbamoyl phosphate synthase … 2: PKRTDIKSILILGAGPIVIGQACEFDYSGAQACKALREEGYRVILVNSNPATIMTDPEMADATYIEPIHWEVVRKIIEKERPDAVLPTMGGQTALNCALELERQGVLEEFGVTMIGATADAIDKAEDRRRFDVAMKKIGLETARSGIAHTMEEALAVAADVGFPCIIRPSFTMGGSGGGIAYNREEFEEICARGLDLSPTKELLIDESLIGWKEYEMEVVRDKNDNCIIVCSIENFDAMGIHTGDSITVAPAQTLTDKEYQIMRNASMAVLREIGVETGGSNVQFAVNPKNGRLIVIEMNPRVSRSSALASKATGFPIAKVAAKLAVGYTLDELMNDITGGRTPASFEPSIDYVVTKIPRFNFEKFAGANDRLTTQMKSVGEVMAIGRTQQESLQKALRGLEVGATGFDPKVSLDDPEALTKIRRELKDAGADRIWYIADAFRAGLSVDGVFNLTNIDRWFLVQIEELVRLEEKVAEVGITGLNADFLRQLKRKGFADARLAKLAGVREAEIRKLRDQYDLHPVYKRVDTCAAEFATDTAYMYSTYEEECEANPSTDREKIMVLGGGPNRIGQGIEFDYCCVHASLALREDGYETIMVNCNPETVSTDYDTSDRLYFEPVTLEDVLEIVRIEKPKGVIVQYGGQTPLKLARALEAAGVPVIGTSPDAIDRAEDRERFQHAVERLKLKQPANATVTAIEMAVEKAKEIGYPLVVRPSYVLGGRAMEIVYDEADLRRYFQTAVSVSNDAPVLLDHFLDDAVEVDVDAICDGEMVLIGGIMEHIEQAGVHSGDSACSLPAYTLSQEIQDVMRQQVQKLAFELQVRGLMNVQFAVKNNEVYLIEVNPRAARTVPFVSKATGVPLAKVAARVMAGKSLAEQGVTKEVIPPYYSVKEVVLPFNKFPGVDPLLGPEMRSTGEVMGVGRTFAEAFAKAQLGSNSTMKKHGRALLSVREGDKERVVDLAAKLLKQGFELDATHGTAIVLGEAGINPRLVNKVHEGRPHIQDRIKNGEYTYIINTTSGRRAIEDSRVIRRSALQYKVHYDTTLNGGFATAMALNADATEKVISVQEMHAQIK
modifications: mutation in small subunit
B2: E. c. E761A: E. coli CPS with K-loop mutation E761A (protein, UniProt P0A6F1 1-382; P00968 2-1073, looked up, variant E761A)
Carbamoyl phosphate synthase … 1: B1 Carbamoyl phosphate synthase … 1 with F359G
Carbamoyl phosphate synthase … 2: B1 Carbamoyl phosphate synthase … 2 with E760A
modifications: mutation in large subunit
B3: E. c. H781K: E. coli CPS with K-loop mutation H781K (protein, UniProt P0A6F1 1-382; P00968 2-1073, looked up, variant H781K)
Carbamoyl phosphate synthase … 1: B1 Carbamoyl phosphate synthase … 1 with F359G
Carbamoyl phosphate synthase … 2: B1 Carbamoyl phosphate synthase … 2 with H780K
modifications: mutation in large subunit
B4: E. c. T974A: E. coli CPS with regulatory domain mutation T974A (protein, UniProt P0A6F1 1-382; P00968 2-1073, looked up, variant T974A)
Carbamoyl phosphate synthase … 1: B1 Carbamoyl phosphate synthase … 1 with F359G
Carbamoyl phosphate synthase … 2: B1 Carbamoyl phosphate synthase … 2 with T973A
modifications: mutation in large subunit
B5: E. c. C269A: E. coli CPS with catalytic triad mutation C269A (protein, UniProt P0A6F1 1-382; P00968 2-1073, looked up, variant C269A)
Carbamoyl phosphate synthase … 1: B1 Carbamoyl phosphate synthase … 1 with C269A, F359G
Carbamoyl phosphate synthase … 2: B1 Carbamoyl phosphate synthase … 2
modifications: mutation in small subunit

Experiments:
cps1-1 and cps2-1 = assay: pyrimidine rescue of cps1-1 and cps2-1 replication and plaque formation; type: cell-based, Toxoplasma gondii; details: 36-hour replication assay, HFF
Procedure: No pyrimidine compound at less than 25 μM could rescue plaque formation of cps1-1 or cps2-1. […] Uridine was quite poor at rescue of plaque formation in cps1-1 and cps2-1.
A more detailed growth response to pyrimidine, measured as parasite replications (doublings) was performed for cps1-1 and cps2-1 and compared to the results previously obtained for […]. […] Uridine rescue was poor, with a slow restoration of growth at very high amounts, >400 μM. Deoxyuridine rescue was significant, but again, full growth rate was not restored at any concentration of deoxyuridine. Rescue with uracil was robust, but only in a limited range of concentration. Full restoration of growth rate in cps1-1 and cps2-1 was possible only with uracil added between 200 and 400 μM. […] This phenotype can only be observed in T. gondii pyrimidine auxotroph mutants, not in wild-type parasites with intact de novo pyrimidine synthesis pathways.
The pyrimidine growth dependence of mutant cps1-1 on the pyrimidine salvage pathway was further documented in thymidine interference experiments. Mutant cps1-1 plaques well in 250 μM uracil or deoxyuridine, but not in 1000 μM thymidine. Since thymidine at 1000 μM is known to inhibit approximately 90% of the parasite nucleoside phosphorylase activity specific for cleavage of deoxyuridine (Iltzsch, (1993) J. Euk. Micro. 40:24-28), growth of cps1-1 was tested in combinations of 1000 μM thymidine and 250 μM uracil or 250 μM deoxyuridine. All pyrimidine salvage in T. gondii must pass through uracil and UPRT conversion of uracil to UMP. In contrast, thymidine has no effect on UPRT activity. Thus, if growth of cps1-1 were dependent on deoxyuridine supplementation then replication in this condition may be inhibited by co-supplementing with 1000 μM thymidine. […] Thus, when cps1-1 is grown in deoxyuridine the parasite strictly requires nucleoside phosphorylase activity to cleave deoxyuridine for growth. […] Thus, cps1-1 and cps2-1 rely strictly on pyrimidine salvage enzymes for growth and further, the HFF host cell in vitro cannot supply sufficient pyrimidines for growth of cps1-1 or cps2-1. […] Such potential inhibitors can only be identified using a pyrimidine auxotroph such as provided in the instant invention.
To assess reversion, 10^6 to 10^7 cps1-1 or cps2-1 parasites were periodically inoculated into HFF flasks supplemented with 5 μM uridine. This concentration of uridine is sufficient to rescue the parent strains (cps1 and cps2) of cps1-1 and cps2-1.

wild-type T. gondii = assay: labeling of parasites with [3H]pyrimidines (pyrimidine salvage); type: cell-based, Toxoplasma gondii; details: parasites grown in host cells
Procedure: Initial experiments primarily involved an enzymatic analysis of drug resistant mutants and the incorporation of various pyrimidine analogs into T. gondii RNA and DNA as an indication of pyrimidine salvage when parasites were grown in either normal host or mutant host cells. All biochemical communications between the parasite and host cells cross the vacuolar membrane which is now known to contain “pores” that permit the passage of nucleobases ranging in molecular mass from 112 daltons up to 244 daltons. The size of the pores is estimated to be approximately 1500 daltons. A T. gondii mutant resistant to 5-fluorodeoxyuridine (FUDR-1) had lost uracil phosphoribosyltransferase (UPRT), an enzyme which is absent in normal host cells (Pfefferkorn (1978) Expt. Parasitol. 44:26-35). […] FUDR-1 mutant parasites were not labeled with [^3H]deoxyuridine. […] FUDR-1 mutant parasites were not labeled with [^3H]uridine. […] FUDR-1 (UPRT knock-out) parasites were not labeled with [^3H]uracil.
Similarly, since uracil only labels the parasite, due to the parasite UPRT, which is absent in the host, the pyrimidine pools of the parasite are also unavailable to the host. Thus, there is no detectable pyrimidine traffic detected between the parasite and host.

cps1 and cps2 mutants = assay: pyrimidine dependence of cps1 and cps2 replication and plaque formation; type: cell-based, Toxoplasma gondii; details: relatively low (thymine, thymidine: moderate) concentrations in medium
Excerpt: However, all of these mutants are somewhat “leaky” in that there was not an absolute growth (replication) dependence on uracil addition to the growth medium for replication. Each of these mutants grows at a moderate (½ of normal) growth rate for the first 2 days following infection of a host cell producing vacuoles that contained 16 to 32 parasites by 3 days post infection. In contrast, RH parasites are lysed out of their primary vacuoles at this time (3 days, >64 parasites). However, the cps mutants slow after 3 days and many parasites never (about ⅓) break out of their primary vacuole. If the primary vacuole breaks, a few parasites can be detected at the site of infection but the infection site always involves a small zone of infection that never forms a visible plaque in a standard 7 day plaque assay. To quantitate growth of these mutants, HFF flasks were inoculated with […] or cps2 parasites (about a multiplicity of infection (MOI) of 1 parasite per 20 HFF cells). After 2 hours of attachment and invasion (all of these mutants have normal attachment and invasion phenotypes as scored by counting percent entered parasites into host cells as a function of time post-inoculation), different concentrations of different pyrimidine compound was added to parallel infected HFF flasks. As a function of time post pyrimidine addition (t=0 hour) the number of parasites per vacuole was scored for 50 vacuoles as described by Fox et al. ((1999) supra). The number of parasite doublings was calculated based on 1 parasite entering each primary vacuole. Thus, 1 doubling=2 parasites per vacuole, 3 doublings=8 parasites per vacuole, and 5 doublings=32 parasites per vacuole. The pyrimidine dependence of cps1 and cps2 replication (doublings of parasites in the vacuole) was plotted graphically. […] The response to thymine and thymidine was additionally informative about the cause of the growth defect in cps1 and cps2. […] This is believed to be caused by the putative defect in the cps1 and cps2 mutants which is a reduced “pool” size of UMP. If UMP pools (ultimately used for RNA and DNA synthesis) are lowered it follows that a resulting decrease in TMP pools is expected since UMP is the precursor of TMP in T. gondii and all other apicomplexan parasites which normally lack TK activity. However, since cps1 and cps2 now express a TK activity carried into the parasite by the p53KOX3-1R plasmid, exemplified by sensitivity of these mutants to ganciclovir (specific to HSV TK), feeding parasites either thymine or thymidine is expected to increase TMP pools. Thus, it appears that moderate levels of thymine or thymidine partially rescue growth of cps1 and cps2 by restoring TMP pools. […] Since the parasite has no mechanism to convert TMP back to UMP there is still a defect in the UMP pool in cps1 and cps2 even with added thymine or thymidine and rescue is never complete. The ability of cps1 and cps2 mutants to form plaques on HFF monolayers in the standard 7 day assay paralleled the pyrimidine dependence of parasite replication in vacuoles.
The cps1 and cps2 mutants were inoculated intraperitoneally (i.p.) into balb/c mice to measure parasite virulence compared to virulent RH parasites. Both mutant cps1 and cps2 had equal virulence as RH parasites in balb/c mice (Jackson Labs), killing all mice within 10 days of i.p. inoculation (group size was four mice per parasite strain). Only 100 parasites (˜50 PFU) of each parasite strain was needed to kill all mice in each group. This pattern of virulence can be understood by re-examining the pyrimidine dependence of cps1 and cps2 growth. Uridine is believed to be the pyrimidine responsible for virulence of cps1 and cps2 in mice. Only 5 μM uridine completely rescues normal plaque size of cps1 and cps2 in vitro. Plasma concentrations of uridine in mice are approximately 5 to 10 μM.

E. coli CPS = details: cited from earlier work

Row | Molecule | rescue of replication (doublings) of cps1-1 and cps2-1 (cps1-1 and cps2-1) | incorporation of [3H]-labeled pyrimidine into wild-type parasites (wild-type T. gondii) | rescue of growth rate / replication of cps1 and cps2 (cps1 and cps2 mutants) | Effect on CPS or CPSII (E. coli CPS; effect on UMP repression) | Effect on CPS or CPSII (E. coli CPS; effect on ornithine activation) | other results
1 | Nc1ccn([C@@H]2O[C@H](CO)[C@@H](O)[C@H]2O)c(=O)n1 [cytidine] | remained as a single non-replicated parasite | did not incorporate | completely rescued | – | – | –
2 | Nc1cc[nH]c(=O)n1 [cytosine] | remained as a single non-replicated parasite | did not incorporate | did not rescue at all | – | – | –
3 | Nc1ccn([C@H]2C[C@H](O)[C@@H](CO)O2)c(=O)n1 [deoxycytidine] | remained as a single non-replicated parasite | – | completely rescued | – | – | –
4 | O=C(O)c1cc(=O)[nH]c(=O)[nH]1 [orotic acid] | – | did not incorporate | – | – | – | –
5 | B1 | – | – | – | – | – | Effect on CPS or CPSII (E. coli CPS; effect on GATase-CPS coupling): Uncouples GATase & CPS
6 | B2 | – | – | – | Abolishes UMP repression | Abolishes ornithine activation | –
7 | B3 | – | – | – | Reduces UMP repression | Reduces ornithine activation | –
8 | B4 | – | – | – | Abolishes UMP repression | Reduces ornithine activation | Effect on CPS or CPSII (E. coli CPS; effect on IMP activation): Abolishes IMP activation
9 | B5 | – | – | – | – | – | Effect on CPS or CPSII (E. coli CPS): Abolishes GATase activity
